Measured values as given in PMC4607639 (Bioorganic & medicinal chemistry letters, 2015).

Experiments:
[1] = Aqueous solubility, shake-flask procedure; assay type: physicochemical; details: for fold less soluble than the corresponding triazines: pyrimidines 7d, 8c versus triazines 7g, 8f
MT-2 human T-cells = assay: Cytotoxicity, inhibition of MT-2 cell growth; assay type: cell-based; details: inhibition of MT-2 cell growth by 50%

Row | SMILES | fold less soluble than the corresponding triazines [1] | also measured
1 | Cc1cn2cc(C#N)cc2c(C)c1Nc1ccnc(Nc2ccc(C#N)cc2)n1 [Compound 7d] | 2-4 fold | –
2 | Cc1cc2cc(C#N)ccc2c(C)c1Nc1ccnc(Nc2ccc(C#N)cc2)n1 [Compound 8c] | 2-4 fold | –
3 | Cc1cc2cc(C#N)ccc2c(C)c1Nc1ncnc(Nc2ccc(C#N)cc2)n1 [Compound 8f] | – | solubility fold greater than for rilpivirine ([1]; versus rilpivirine): ca. 1000 fold
4 | N#Cc1ccc(Nc2ncnc(Nc3c(F)cc4cc(C#N)ccc4c3F)n2)cc1 [Compound 8h] | – | CC50 (MT-2 human T-cells): no cytotoxicity
